Our source for the IC50 values is US12673944B2, “Compounds having inhibitory activity against glucosylceramide synthase or pharmaceutically acceptable salt thereof, processes for preparing the same, and pharmaceutical compositions comprising the same” (YUHAN CORPORATION, priority 2019, dated 2026).

In assay [1] the test system is GM1 production in Jurkat cells. Put plainly: cells. In kind it is cell-based.
The target in assay [2] is T1, glucosylceramide synthase (GCS) (Homo sapiens, UniProt Q16739).
T1 construct: The obtained supernatant was used; host or cells: A549 cells (lysate supernatant after sonication)
T1 sequence (Q16739 1-394): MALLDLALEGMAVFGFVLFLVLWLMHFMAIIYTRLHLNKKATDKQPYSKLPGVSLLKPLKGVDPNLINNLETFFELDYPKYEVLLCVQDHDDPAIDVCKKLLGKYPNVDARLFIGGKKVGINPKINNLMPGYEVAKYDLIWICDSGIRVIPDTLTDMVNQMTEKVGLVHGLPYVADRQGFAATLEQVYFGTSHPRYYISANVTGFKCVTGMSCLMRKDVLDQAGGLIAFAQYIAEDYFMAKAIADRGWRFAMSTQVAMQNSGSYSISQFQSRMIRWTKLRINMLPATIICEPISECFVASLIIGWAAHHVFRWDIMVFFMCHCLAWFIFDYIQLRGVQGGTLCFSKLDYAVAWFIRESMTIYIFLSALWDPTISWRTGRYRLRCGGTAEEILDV
Put plainly: GCS enzyme inhibition assay (A549 cell lysate, NBD C6-ceramide, HPLC fluorescence). As to conditions: inhibitory activity against GCS, 37° C., 90 minutes. The class given is biochemical. On the procedure:
Ibiglustat, known as a GCS inhibitor, was used as a control.
After the cells attached to the culture dish were washed with phosphate buffered saline (PBS), the cells were scraped off with a cell scraper and then centrifuged (4000 rpm, 3 min, 4° C.) to collect the cells in a 50 ml tube. The cell pellets were suspended in a lysis buffer (50 mM HEPES, pH 7.3, containing 1× the protease/phosphatase inhibitor cocktail), lysed by sonication, and then the lysate was centrifuged (13000 rpm, 10 min, 4° C.). The obtained supernatant was used for the quantitative analysis of proteins. The amount of proteins was measured using the BCA protein assay kit, using bovine serum albumin as a standard.
Enzymatic reactions were initiated by sequentially adding the following reaction materials to a 96 deep-well plate. Thereafter, the enzymatic reactions were performed at 37° C. for 90 minutes.
The enzymatic reactions were stopped by adding 100 μl of chloroform/methanol (2:1, v/v). After vortexing for 15 seconds, each mixture was centrifuged (4000 rpm, 10 min, 18° C.). The lower layer (50 μl) was transferred to a new 96 deep-well plate and dried with a reduced concentrator.
Data analysis was performed by the following equations. % Area(Sample)=Area(GlcCer)/[Area(Cer)+Area(GlcCer)]×100 % GCS activity=[Area(Sample)−Area(ibiglustat)]/[Area(DMSO)−Area(ibiglustat)]×100

Like-named read-outs stand apart in the source and are kept apart here.

Usually IC50 stands for the concentration that inhibits the measured activity by half. Take `O=C(NC1CCOc2cc(-c3cccc(F)c3)ccc21)O[C@@H]1CN2CCC1CC2` (stereo partly drawn) [Example 1, (S)-quinuclidin-3-yl (7-(3-fluorophenyl)chroman-4-yl)carbamate]: the IC50 was 1.69 nM in assay [1] (Homo sapiens, Jurkat, 72 h) and 2.6 nM in assay [2].

Take `O=C(NC1CCOc2cc(-c3cccc(Cl)c3)ccc21)O[C@@H]1CN2CCC1CC2` (stereo partly drawn) [Example 2, (S)-quinuclidin-3-yl (7-(3-chlorophenyl)chroman-4-yl)carbamate]: the concentration for half-maximal inhibition (IC50) in assay [1] (Homo sapiens, Jurkat, 72 h) turned out to be 3.47 nM; in assay [2], 0.7 nM.

For the compound `O=C(NC1CCOc2cc(-c3cccc(C(F)(F)F)c3)ccc21)O[C@@H]1CN2CCC1CC2` (stereo partly drawn) [Example 3, (S)-quinuclidin-3-yl (7-(3-(trifluoromethyl)phenyl)chroman-4-yl)carbamate], the 50% inhibitory concentration (IC50) in assay [1] (Homo sapiens, Jurkat, 72 h) turned out to be 2.13 nM; in assay [2] it was 0.7 nM.

With `O=C(NC1CCOc2cc(-c3cccc(OC(F)(F)F)c3)ccc21)O[C@@H]1CN2CCC1CC2` (stereo partly drawn) [Example 4, (S)-quinuclidin-3-yl (7-(3-(trifluoromethoxy)phenyl)chroman-4-yl)carbamate], the IC50 in assay [1] (Homo sapiens, Jurkat, 72 h) was 1.08 nM; in assay [2], 0.7 nM.

Consider `COCOc1ccccc1-c1ccc2c(c1)OCCC2NC(=O)O[C@@H]1CN2CCC1CC2` (stereo partly drawn) [Example 5, (S)-quinuclidin-3-yl (7-(2-(methoxymethoxy)phenyl)chroman-4-yl)carbamate], for which the half-maximal inhibitory concentration (IC50) was 29.2 nM in assay [1] (Homo sapiens, Jurkat, 72 h) and 3.71 nM in assay [2].

Regarding `COCOc1cccc(-c2ccc3c(c2)OCCC3NC(=O)O[C@@H]2CN3CCC2CC3)c1` (stereo partly drawn) [Example 6, (S)-quinuclidin-3-yl (7-(3-(methoxymethoxy)phenyl)chroman-4-yl)carbamate], the IC50 was found to be 7.18 nM in assay [1] (Homo sapiens, Jurkat, 72 h) and 0.67 nM in assay [2].

`COCCOc1ccccc1-c1ccc2c(c1)OCCC2NC(=O)O[C@@H]1CN2CCC1CC2` (stereo partly drawn) [Example 7, (S)-quinuclidin-3-yl (7-(2-(2-methoxyethoxy)phenyl)chroman-4-yl)carbamate]: the concentration for half-maximal inhibition (IC50) was determined as 34.1 nM in assay [1] (Homo sapiens, Jurkat, 72 h) and 3.28 nM in assay [2].

As to `COCCOc1cccc(-c2ccc3c(c2)OCCC3NC(=O)O[C@@H]2CN3CCC2CC3)c1` (stereo partly drawn) [Example 8, (S)-quinuclidin-3-yl (7-(3-(2-methoxyethoxy)phenyl)chroman-4-yl)carbamate], the IC50 came to 3.59 nM in assay [1] (Homo sapiens, Jurkat, 72 h) and 0.48 nM in assay [2].

Consider `O=C(NC1CCOc2cc(-c3ccccc3F)ccc21)O[C@@H]1CN2CCC1CC2` (stereo partly drawn) [Example 9, (S)-quinuclidin-3-yl (7-(2-fluorophenyl)chroman-4-yl)carbamate], for which the IC50 came out at 2.83 nM in assay [1] (Homo sapiens, Jurkat, 72 h) and 1.81 nM in assay [2].

As for `O=C(NC1CCOc2cc(-c3ccccc3Cl)ccc21)O[C@@H]1CN2CCC1CC2` (stereo partly drawn) [Example 10, (S)-quinuclidin-3-yl (7-(2-chlorophenyl)chroman-4-yl)carbamate], the IC50 in assay [1] (Homo sapiens, Jurkat, 72 h) is 7.23 nM; in assay [2], 2.02 nM.

`O=C(NC1CCOc2cc(-c3ccccc3C(F)(F)F)ccc21)O[C@@H]1CN2CCC1CC2` (stereo partly drawn) [Example 11, (S)-quinuclidin-3-yl (7-(2-(trifluoromethyl)phenyl)chroman-4-yl)carbamate]: the IC50 in assay [1] (Homo sapiens, Jurkat, 72 h) came out at 18.2 nM; in assay [2], 10.4 nM.

For the compound `O=C(NC1CCOc2cc(-c3ccccc3OC(F)(F)F)ccc21)O[C@@H]1CN2CCC1CC2` (stereo partly drawn) [Example 12, (S)-quinuclidin-3-yl (7-(2-(trifluoromethoxy)phenyl)chroman-4-yl)carbamate], the IC50 in assay [1] (Homo sapiens, Jurkat, 72 h) was determined as 3.28 nM; in assay [2] it was 4.28 nM.

As for `O=C(NC1CCOc2cc(-c3ccc(F)cc3)ccc21)O[C@@H]1CN2CCC1CC2` (stereo partly drawn) [Example 13, (S)-quinuclidin-3-yl (7-(4-fluorophenyl)chroman-4-yl)carbamate], the IC50 in assay [1] (Homo sapiens, Jurkat, 72 h) turned out to be 42.8 nM; in assay [2] it was 8.54 nM.

For `O=C(NC1CCOc2cc(-c3ccc(Cl)cc3)ccc21)O[C@@H]1CN2CCC1CC2` (stereo partly drawn) [Example 14, (S)-quinuclidin-3-yl (7-(4-chlorophenyl)chroman-4-yl)carbamate], the IC50 came to 42.1 nM in assay [1] (Homo sapiens, Jurkat, 72 h) and 9.67 nM in assay [2].

Take `O=C(NC1CCOc2cc(-c3ccc(C(F)(F)F)cc3)ccc21)O[C@@H]1CN2CCC1CC2` (stereo partly drawn) [Example 15, (S)-quinuclidin-3-yl (7-(4-(trifluoromethyl)phenyl)chroman-4-yl)carbamate]: the concentration for half-maximal inhibition (IC50) in assay [1] (Homo sapiens, Jurkat, 72 h) came to 38.9 nM; in assay [2] it was 11.7 nM.

Take `O=C(NC1CCOc2cc(-c3ccc(OC(F)(F)F)cc3)ccc21)O[C@@H]1CN2CCC1CC2` (stereo partly drawn) [Example 16, (S)-quinuclidin-3-yl (7-(4-(trifluoromethoxy)phenyl)chroman-4-yl)carbamate]: the IC50 in assay [1] (Homo sapiens, Jurkat, 72 h) amounted to 27.8 nM; in assay [2], 9.4 nM.

For the compound `COc1ccccc1-c1ccc2c(c1)OCCC2NC(=O)O[C@@H]1CN2CCC1CC2` (stereo partly drawn) [Example 17, (S)-quinuclidin-3-yl (7-(2-methoxyphenyl)chroman-4-yl)carbamate], the 50% inhibitory concentration (IC50) in assay [1] (Homo sapiens, Jurkat, 72 h) worked out at 5.5 nM; in assay [2], 1.41 nM.

For `COc1cccc(-c2ccc3c(c2)OCCC3NC(=O)O[C@@H]2CN3CCC2CC3)c1` (stereo partly drawn) [Example 18, (S)-quinuclidin-3-yl (7-(3-methoxyphenyl)chroman-4-yl)carbamate], the IC50 in assay [1] (Homo sapiens, Jurkat, 72 h) stood at 6.98 nM; in assay [2] it was 1.54 nM.

Turning to `COc1ccc(-c2ccc3c(c2)OCCC3NC(=O)O[C@@H]2CN3CCC2CC3)cc1` (stereo partly drawn) [Example 19, (S)-quinuclidin-3-yl (7-(4-methoxyphenyl)chroman-4-yl)carbamate], the IC50 stood at 30.5 nM in assay [1] (Homo sapiens, Jurkat, 72 h) and 8.32 nM in assay [2].

On to `CCOc1ccccc1-c1ccc2c(c1)OCCC2NC(=O)O[C@@H]1CN2CCC1CC2` (stereo partly drawn) [Example 20, (S)-quinuclidin-3-yl (7-(2-ethoxyphenyl)chroman-4-yl)carbamate], for which the IC50 turned out to be 19.1 nM in assay [1] (Homo sapiens, Jurkat, 72 h) and 2.86 nM in assay [2].

As to `CCOc1cccc(-c2ccc3c(c2)OCCC3NC(=O)O[C@@H]2CN3CCC2CC3)c1` (stereo partly drawn) [Example 21, (S)-quinuclidin-3-yl (7-(3-ethoxyphenyl)chroman-4-yl)carbamate], the IC50 in assay [1] (Homo sapiens, Jurkat, 72 h) was determined as 4.56 nM; in assay [2], 0.67 nM.

Take `CCOc1ccc(-c2ccc3c(c2)OCCC3NC(=O)O[C@@H]2CN3CCC2CC3)cc1` (stereo partly drawn) [Example 22, (S)-quinuclidin-3-yl (7-(4-ethoxyphenyl)chroman-4-yl)carbamate]: the half-maximal inhibitory concentration (IC50) in assay [1] (Homo sapiens, Jurkat, 72 h) was 34.2 nM; in assay [2], 4 nM.

With `CC(C)c1cccc(-c2ccc3c(c2)OCCC3NC(=O)O[C@@H]2CN3CCC2CC3)c1` (stereo partly drawn) [Example 23, (S)-quinuclidin-3-yl (7-(3-isopropylphenyl)chroman-4-yl)carbamate], the IC50 in assay [1] (Homo sapiens, Jurkat, 72 h) came out at 0.57 nM; in assay [2] it was 0.48 nM.

On to `CC(C)c1ccc(-c2ccc3c(c2)OCCC3NC(=O)O[C@@H]2CN3CCC2CC3)cc1` (stereo partly drawn) [Example 24, (S)-quinuclidin-3-yl (7-(4-isopropylphenyl)chroman-4-yl)carbamate], for which the IC50 stood at 10.7 nM in assay [1] (Homo sapiens, Jurkat, 72 h) and 4.88 nM in assay [2].

`CC(C)(C)c1cccc(-c2ccc3c(c2)OCCC3NC(=O)O[C@@H]2CN3CCC2CC3)c1` (stereo partly drawn) [Example 25, (S)-quinuclidin-3-yl (7-(3-(tert-butyl)phenyl)chroman-4-yl)carbamate]: the IC50 in assay [1] (Homo sapiens, Jurkat, 72 h) stood at 1.07 nM; in assay [2] it was 0.65 nM.

Turning to `CC(C)(C)c1ccc(-c2ccc3c(c2)OCCC3NC(=O)O[C@@H]2CN3CCC2CC3)cc1` (stereo partly drawn) [Example 26, (S)-quinuclidin-3-yl (7-(4-(tert-butyl)phenyl)chroman-4-yl)carbamate], the IC50 in assay [1] (Homo sapiens, Jurkat, 72 h) is 23.3 nM; in assay [2], 10.2 nM.

As for `O=C(NC1CCOc2cc(-c3cc(Cl)ccc3Cl)ccc21)O[C@@H]1CN2CCC1CC2` (stereo partly drawn) [Example 27, (S)-quinuclidin-3-yl (7-(2,5-dichlorophenyl)chroman-4-yl)carbamate], the IC50 was determined as 0.54 nM in assay [1] (Homo sapiens, Jurkat, 72 h) and 0.75 nM in assay [2].

`O=C(NC1CCOc2cc(-c3ccc(Cl)c(Cl)c3)ccc21)O[C@@H]1CN2CCC1CC2` (stereo partly drawn) [Example 28, (S)-quinuclidin-3-yl (7-(3,4-dichlorophenyl)chroman-4-yl)carbamate]: the IC50 in assay [1] (Homo sapiens, Jurkat, 72 h) worked out at 24.1 nM; in assay [2] it was 5.19 nM.

Regarding `CC1(C)COc2cc(-c3ccc(N4CCOCC4)c(F)c3)ccc2C1NC(=O)O[C@@H]1CN2CCC1CC2` (stereo partly drawn) [Example 204, (S)-quinuclidin-3-yl (7-(3-fluoro-4-morpholinophenyl)-3,3-dimethylchroman-4-yl)carbamate], in assay [1] (read-out: IC50), the IC50 turned out to be 0.31 nM.

In turn, `CC1(C)CC(NC(=O)O[C@@H]2CN3CCC2CC3)c2cc(-c3cccc(F)c3)ccc2O1` (stereo partly drawn) [Example 294, (S)-quinuclidin-3-yl (6-(3-fluorophenyl)-2,2-dimethylchroman-4-yl)carbamate] returned an IC50 in assay [2] of 145 nM.
